Experiment [1] concerns MITF, tyrosinase, gp-100, MART-1. In words: Immunoblotting of melanoma differentiation proteins, densiometric analysis. The format is cell-based, human. To be noted: 12 hrs after treatment; 10 μM SU11274. The source says:
SU11274: [(3Z)-N-(3-chlorophenyl)-3-({3,5-dimethyl-4-[(4-methylpiperazin-1-yl)carbonyl]-1H-pyrrol-2-yl}methylene)-N-methyl-2-oxo-2,3-dihydro-1H-indole-5-sulfonamide] (obtained from Pfizer Inc, San Diego, Calif.) was suspended in DMSO and kept in small aliquots at −20 degrees. Phosphospecific antibody to pY1230/1234/1235 (autophosphorylation site) was obtained from Biosource International, Camarillo, Calif. Phosphospecific antibodies for pS473 on AKT and pT421/pS424 on p70 S6-Kinase were obtained from Cell Signaling, Beverly, Mass. Total c-Met and BCLXL antibodies were obtained from Santa Cruz Biotechnology, Santa Cruz, Calif. and β-actin from Sigma Aldrich (St. Louis, Mo.). For detecting melanoma differentiation proteins the following antibodies were used anti-tyrosinase monoclonal antibody (clone T311, Nova-castra, New Castle upon Tyne, UK), anti-gp-100 monoclonal antibody (MO 634, Dako corporation, Carpinteria, Calif.) and anti-MART-1/Melan-A monoclonal antibody (clone M2-7C10, Signet, Dedham, Mass.).
Cells were lysed in lysis buffer containing 20 mM Tris, pH 8.0; 150 mM NaCl, 10% glycerol, 1% NP40, 0.42% NaF, 1 mM PMSF, 1 mM Na3V04, 10 μl/ml Protease inhibitor cocktail (Sigma Aldrich, St. Louis, Mo.) as described previously (Maulik et al., Clin Cancer Res, 8: 620-7 (2002)). Cell lysates were separated by 7.5% or 10% SDS-PAGE electrophoresis under reducing conditions. Proteins were transferred to an immobilization membrane (Bio-Rad Laboratories, Hercules, Calif.) and immunoblotted using the enhanced chemiluminescence technique (PerkinElmer Life and analytical Sciences, Torrence, Calif.).
siRNA against c-Met was obtained from Dharmacon (Lafayette, Colo.). Briefly four pooled SiRNA duplexes were transiently transfected into MU melanoma cells by the Dharmacon protocol utilizing Oligofectamine obtained from Invitrogen (Carlsbad, Calif.). Mock transfection was done in parallel using SignalSilence control SiRNA (Cell Signaling Technology) as negative control. For studies on the effect of Si RNA on differentiation proteins MU melanoma cells were transfected with Si RNA as described above and cell lysates were prepared after 12 hrs and immunoblotting performed as described above.
It was hypothesized that SU11274 could not only induce a differentiated phenotype, but also MITF, tyrosinase and other melanocyte associated differentiation markers. […] The increase in the level of various differentiation proteins was determined by densiometric anaylsis after treatment with 10 μM SU11274.
The effect of si RNA against c-Met was also studied on the proliferation and differentiation of MU melanoma cells. […] The increase in the level of various differentiation proteins was determined by densiometric anaylsis after treatment with c-Met si RNA.

The subject of experiment [2] is melanoma cell lines that expressed c-Met. In words: Cell growth analysis (cell counting). The format is cell-based. To be noted: Homo sapiens; 96 hrs, MEM with 10% serum. As for the experimental part: (§1) For measuring the effect of SU11274 on growth of melanoma cells, MM-AN, MU, PM-WK, MM-RU, MM-MC and RPM-EP cells were plated at 6×10^4 cells in 60 mm dishes in MEM with 10% serum. After 24 hrs different concentrations of SU11274 were added and after 96 hrs cells were trypsinized and counted in a cell counter (Beckman Coulter). Each data point was repeated in triplicate.

In another experiment the test system is MM-RU melanoma cells. In words: Differentiation of melanoma cells (morphology). The format is cell-based, human. To be noted: 72 hrs with 5 μM SU11274. The source says: (§2) Thus SU11274 could induce a differentiated phenotype in a wide variety of melanoma cells melanized, amelanotic, less and more differentiated melanoma cells.
The test system of the next experiment is MM-MC melanoma cells. In words: Differentiation of melanoma cells (morphology). Type of experiment: cell-based, human. To be noted: 72 hrs with 5 μM SU11274.
Excerpt: as §2

Experiment [3] relates to MM-AN melanoma cells (minimal levels of c-MET). In words: Cell growth analysis (cell counting). Type of experiment: cell-based, human. As for the experimental part: as §1
In the next experiment the test system is MM-AN cells. In words: Apoptosis by propidium iodide FACS (sub G0/G1). Type of experiment: cell-based, human. As for the experimental part:
MM-AN, MU, PM-WK, MM-RU, MM-MC, MM-LH and RPM-EP melanoma cells were grown in MEM (Cellgro, Hernon, Va.) with 10% FBS (Gemini Bioproducts, Woodland, Calif.). Triplicate melanoma cell cultures were grown in MEM with 10% FBS and treated with a final concentration of 5-10 μM of SU11274 or an equal volume of diluent (DMSO) as a control for 96 hrs. Cells were collected, stained with propidium iodide and analyzed with a Becton Dickinson FACS Scan and Cell Quest software.
SU11274, which is a highly specific inhibitor of c-Met, was tested on the six melanoma cell lines. […] By 96 hrs between 12 to 58% of cells in different melanoma cell lines appeared in the sub G0/G1 region of the FACS profile indicating apoptosis.

On to `Cc1[nH]c(/C=C2\C(=O)Nc3ccc(S(=O)(=O)N(C)c4cccc(Cl)c4)cc32)c(C)c1C(=O)N1CCN(C)CC1` [SU11274, (3Z)-N-(3-chlorophenyl)-3-({3,5-dimethyl-4-[(4-methylpiperazin-1-yl)carbonyl]-1H-pyrrol-2-yl}methylene)-N-methyl-2-oxo-2,3-dihydro-1H-indole-5-sulfonamide], for which, in experiment [1], the “increase in levels of MART-1” value stood at 2 fold, the “increase in levels of MITF” value came to 3 fold, the “increase in levels of gp-100” value is reported as 6 fold and the “increase in levels of tyrosinase” value is 12 fold. For the same molecule, the IC50 in experiment [2] was 1000 to 2500 nM. In the experiment with MM-RU melanoma cells, the “change in morphology / differentiated phenotype” value is reported as “became bipolar, tripolar or multipolar”. In addition, in the experiment with MM-MC melanoma cells, the “change in morphology / differentiated phenotype” value is reported as “became bipolar, tripolar or multipolar”. For the same molecule, the “IC50 of MM-AN relative to cell lines with abundant c-Met” value in experiment [3] amounted to 2 fold. Further, half-maximal inhibition in experiment [3] (Homo sapiens, MM-AN, 96 hrs) (IC50) was put at 5 µM. The apoptosis entry in the experiment on MM-AN cells is reported as “No apoptosis could be detected”.

For the origin of these results see US20100062441A1, “C-MET MUTATIONS AND USES THEREOF” (priority 2007, published 2010).
